Test results published in patent publication US8778966B2, “Quinolinone derivatives as PARP and tank inhibitors” (Janssen Pharmaceutica, NV, priority 2007, dated 2014).

What was measured:
Human PARP-1 enzyme = molecular target: T1, Human PARP-1 enzyme (Homo sapiens, UniProt P09874); experiment: In vitro Scintillation Proximity Assay (SPA) for PARP-1 inhibitory activity; assay type: biochemical; details: read-out: in vitro SPA assay PARP-1 pIC50 (converted)
T1 construct: purchased Trevigen
Method in brief: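 SPA assay: nicked-DNA-activated PARP-1 (0.1–0.2 μg/ml) ADP-ribosylates biotinylated histones (2 μg/ml) using [3H]-NAD+, 20 min at RT in Tris pH 8/DTT/MgCl2, stopped with 2 mM NAD+. Blank-subtracted cpm expressed as % control; IC50 by linear interpolation, reported as pIC50 (10−5 to 3×10−9 M tested).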

HCT116 cells = experiment: Antiproliferative activity, Alamar Blue assay, HCT116 cells; assay type: cell-based, human; set-up: key to HCT116 antiproliferative activity pIC50: pIC50 = -log IC50 (IC50: conc. reducing growth to 50% of control); details: for IC50: Homo sapiens, HCT-116, HCT116 cells, read-out: HCT116 antiproliferative activity pIC50 (converted); for HCT116 antiproliferative activity pIC50: HCT116 cells
Method in brief: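 HCT116 cells seeded, adhered 24 h, then exposed to compound for 4 days; Alamar Blue (resazurin) added for 4 h at 37 °C, fluorescence read at 540/590 nm. Viability as % of untreated control, triplicate wells; IC50 by probit analysis, reported as pIC50.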

T1 sequence (P09874 whole entry): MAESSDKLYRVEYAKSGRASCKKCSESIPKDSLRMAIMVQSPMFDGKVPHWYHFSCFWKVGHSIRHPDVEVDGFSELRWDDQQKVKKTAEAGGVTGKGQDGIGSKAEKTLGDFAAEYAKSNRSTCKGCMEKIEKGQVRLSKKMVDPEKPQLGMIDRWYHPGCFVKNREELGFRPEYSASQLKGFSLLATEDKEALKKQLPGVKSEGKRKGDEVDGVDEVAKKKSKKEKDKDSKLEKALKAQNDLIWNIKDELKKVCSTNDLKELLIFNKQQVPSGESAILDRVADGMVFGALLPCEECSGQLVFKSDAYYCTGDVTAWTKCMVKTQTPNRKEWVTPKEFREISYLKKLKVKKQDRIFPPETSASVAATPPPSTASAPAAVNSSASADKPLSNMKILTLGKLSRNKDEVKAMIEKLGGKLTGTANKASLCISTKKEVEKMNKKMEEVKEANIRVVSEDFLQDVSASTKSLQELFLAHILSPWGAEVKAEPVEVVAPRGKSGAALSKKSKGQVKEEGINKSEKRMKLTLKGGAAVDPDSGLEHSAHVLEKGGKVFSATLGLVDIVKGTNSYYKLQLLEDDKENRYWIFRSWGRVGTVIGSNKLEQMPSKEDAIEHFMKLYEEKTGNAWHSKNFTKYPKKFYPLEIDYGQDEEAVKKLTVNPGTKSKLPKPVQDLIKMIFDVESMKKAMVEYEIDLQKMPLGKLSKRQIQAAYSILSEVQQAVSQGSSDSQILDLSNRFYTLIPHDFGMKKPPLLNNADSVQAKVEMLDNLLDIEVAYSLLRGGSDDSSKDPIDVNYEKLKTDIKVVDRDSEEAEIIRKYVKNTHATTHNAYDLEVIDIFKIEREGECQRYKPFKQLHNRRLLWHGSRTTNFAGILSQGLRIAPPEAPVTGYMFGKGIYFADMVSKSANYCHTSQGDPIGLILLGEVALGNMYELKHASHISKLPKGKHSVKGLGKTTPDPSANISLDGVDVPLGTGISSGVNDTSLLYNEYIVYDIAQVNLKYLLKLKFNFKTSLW

| SMILES | IC50 (Human PARP-1 enzyme) | IC50 (HCT116 cells) | melting point | HCT116 antiproliferative activity pIC50 (HCT116 cells) |
| --- | --- | --- | --- | --- |
| Cc1cc2ccc(C(C)(C#N)C3CCc4c(C#N)cccc43)cc2[nH]c1=O (racemic) [Compound 393] | 100 nM | 6310 nM | – | – |
| CCc1cc2ccc(C(C)(C#N)C3CCc4ccc(Br)cc43)cc2[nH]c1=O (single isomer, unassigned) [Compound 380] | 126 nM | – | – | 5.7 |
| CCc1cc2ccc(C(C)(C#N)C3CCc4ccc(Br)cc43)cc2[nH]c1=O (single isomer, unassigned) [Compound 381] | 79.4 nM | – | – | 7.3 |
| Cc1cc2ccc([C@](C)(C#N)C3CCc4cccnc43)cc2[nH]c1=O (single isomer, unassigned) [Compound 388] | 200 nM | 6310 nM | – | – |
| CCc1cc2ccc([C@](C)(C#N)[C@H]3CCOc4ccccc43)cc2[nH]c1=O (single isomer, unassigned) [Compound 394] | 200 nM | 7940 nM | – | – |
| CCc1cc2ccc([C@@](C)(C#N)[C@H]3CCOc4ccccc43)cc2[nH]c1=O (single isomer, unassigned) [Compound 395] | 63.1 nM | 631 nM | – | – |
| CCc1cc2ccc([C@](C)(C#N)C[C@H]3CCc4ccccc4O3)cc2[nH]c1=O (single isomer, unassigned) [Compound 396] | 100 nM | – | – | – |
| Cc1cc2ccc(C(C)(C#N)Cc3cccc(Oc4ncccn4)c3)cc2[nH]c1=O (centres unmarked) [Compound 191] | 126 nM | 251 nM | – | – |
| Cc1cc2ccc(C(C)(C#N)Cc3cccc(Oc4ccccc4)n3)cc2[nH]c1=O (centres unmarked) [Compound 193] | 100 nM | 398 nM | – | – |
| CCc1cnc(OCCC(C)(C#N)c2ccc3cc(CC)c(=O)[nH]c3c2)nc1 (centres unmarked) [Compound 222] | 50.1 nM | 3160 nM | – | – |
| CCc1cc2ccc(C(C)(C#N)CCOc3nccc(OC)n3)cc2[nH]c1=O (centres unmarked) [Compound 223] | 50.1 nM | 3980 nM | – | – |
| Cc1cc2ccc(C(C)(C#N)Cc3cccc(C#N)n3)cc2[nH]c1=O (centres unmarked) [Compound 227] | 100 nM | 501 nM | – | – |
| Cc1cc2ccc([C@@](C)(C#N)[C@@H]3CCc4cc(Br)ccc43)cc2[nH]c1=O [Compound 240] | 200 nM | 10000 nM | – | – |
| Cc1cc2ccc([C@@](C)(C#N)[C@H]3CCc4cc(Br)ccc43)cc2[nH]c1=O [Compound 241] | 200 nM | 501 nM | – | – |
| Cc1cc2ccc([C@](C)(C#N)[C@@H]3CCc4cc(Br)ccc43)cc2[nH]c1=O [Compound 242] | 158 nM | 50.1 nM | – | – |
| Cc1cc2ccc(C(C)(C#N)C3CCc4cc(Br)ccc43)cc2[nH]c1=O (centres unmarked) [Compound 244] | 200 nM | – | – | 6.8 |
| Cc1cc2ccc(C(C)(C#N)C3CCc4c(Br)cccc43)cc2[nH]c1=O (centres unmarked) [Compound 248] | 79.4 nM | 501 nM | – | – |

| SMILES | IC50 (Human PARP-1 enzyme) | IC50 (HCT116 cells) | melting point | HCT116 antiproliferative activity pIC50 (HCT116 cells) |
| --- | --- | --- | --- | --- |
| Cc1cc2ccc(C(C)(C#N)C3CCc4ccc(Br)cc43)cc2[nH]c1=O (centres unmarked) [Compound 249] | 126 nM | 158 nM | – | – |
| Cc1cc2ccc(C(C)(C#N)C3CCc4ccc(C#N)cc43)cc2[nH]c1=O (centres unmarked) [Compound 250] | 100 nM | 200 nM | – | – |
| Cc1cc2ccc(C(C)(C#N)CCCCOc3ccccc3)cc2[nH]c1=O (centres unmarked) [Compound 272] | 126 nM | 2000 nM | – | – |
| CCc1cc2ccc(C(C)(C#N)CN(C)CCc3cn(C)c4ccccc34)cc2[nH]c1=O (centres unmarked) [Compound 303] | 63.1 nM | 1580 nM | – | – |
| Cc1cc2ccc(C(C)(C#N)Cc3cccc(Oc4ccccn4)c3)cc2[nH]c1=O (centres unmarked) [Compound 304] | 100 nM | 251 nM | – | – |
| CCOc1cc(N(C)C)nc(CC(C)(C#N)c2ccc3cc(CC)c(=O)[nH]c3c2)n1 (centres unmarked) [Compound 312] | 39.8 nM | 501 nM | – | – |
| CCc1cc2ccc(C(C#N)(CC)Cc3nc(C#N)cc(OC)n3)cc2[nH]c1=O (centres unmarked) [Compound 316] | 39.8 nM | 631 nM | – | – |
| CCc1cc2ccc(C(C#N)(CC)Cc3nc(OC)cc(OC)n3)cc2[nH]c1=O (centres unmarked) [Compound 321] | 79.4 nM | 316 nM | – | – |
| CCc1cc2ccc(C(C#N)(CC)Cc3cccc(C#N)n3)cc2[nH]c1=O (centres unmarked) [Compound 342] | 79.4 nM | 501 nM | – | – |
| CCc1cc2ccc(C(C)(C#N)CCOc3ncc(Br)cn3)cc2[nH]c1=O (centres unmarked) [Compound 349] | 63.1 nM | 631 nM | – | – |
| CCc1cc2ccc(C(C)(C#N)CN3CCN(c4ncc(Br)cn4)CC3)cc2[nH]c1=O (centres unmarked) [Compound 374] | 100 nM | 501 nM | – | – |
| CCc1cc2ccc(C(C)(C#N)CN3CCc4ccccc4C3)cc2[nH]c1=O (centres unmarked) [Compound 376] | 158 nM | 2000 nM | – | – |
| Cc1cc2ccc([C@@](C)(C#N)[C@@H]3CCCc4ccccc43)cc2[nH]c1=O [Compound 382] | 501 nM | 5010 nM | – | – |
| CCc1cc2ccc(C(C#N)(CC)C3CCc4ccc(OC)cc43)cc2[nH]c1=O (centres unmarked) [Compound 403] | 501 nM | 158 nM | – | – |
| Cc1cc2ccc([C@@](C)(C#N)[C@H]3CCc4ccc(Br)cc43)cc2[nH]c1=O [Compound 405] | 316 nM | 50.1 nM | – | – |
| Cc1cc2ccc([C@](C)(C#N)[C@@H]3CCc4ccc(Br)cc43)cc2[nH]c1=O [Compound 406] | 158 nM | 10000 nM | – | – |
| Cc1cc2ccc([C@](C)(C#N)[C@H]3CCc4ccc(Br)cc43)cc2[nH]c1=O [Compound 407] | 631 nM | 631 nM | – | – |

Other lines, results leading:

| IC50 (Human PARP-1 enzyme) | IC50 (HCT116 cells) | melting point | HCT116 antiproliferative activity pIC50 (HCT116 cells) | SMILES |
| --- | --- | --- | --- | --- |
| 100 nM | 63.1 nM | 116 °C | – | CCc1cc2ccc([C@@](C)(C#N)CN(C)Cc3ccc(C#N)cc3)cc2[nH]c1=O (single isomer, unassigned) [Compound 253] |
| 251 nM | 2510 nM | 170 °C | – | CCc1cc2ccc(C(C)(C#N)Cc3cccc(-c4cnn(C)c4)c3)cc2[nH]c1=O (centres unmarked) [Compound 17] |
| 2000 nM | 5010 nM | 192 °C | – | CCc1cc2ccc(C(C)(C#N)Cc3cccc(-c4ccccc4)c3)cc2[nH]c1=O (centres unmarked) [Compound 18] |
| 126 nM | 200 nM | – | – | CCC(=O)c1cccc(CC(C)(C#N)c2ccc3cc(C)c(=O)[nH]c3c2)c1 (centres unmarked) [Compound 173] |
| 31.6 nM | 501 nM | – | – | C=C(C)c1cccc(CC(C)(C#N)c2ccc3cc(CC)c(=O)[nH]c3c2)c1 (centres unmarked) [Compound 254] |
| 20 nM | 501 nM | – | – | CCc1cc2ccc(C(C#N)(CC)Cc3cccc(C#N)c3)cc2[nH]c1=O (centres unmarked) [Compound 265] |
| 50.1 nM | 200 nM | – | – | CCc1cc2ccc(C(C)(C#N)Cc3cc(F)cc(C#N)c3)cc2[nH]c1=O (centres unmarked) [Compound 266] |
| 39.8 nM | 1580 nM | – | – | CCc1cc2ccc(C(C#N)(CC)Cc3cccc(F)c3)cc2[nH]c1=O (centres unmarked) [Compound 270] |
| 100 nM | 398 nM | – | – | Cc1cc2ccc(C(C)(C#N)Cc3cc(F)cc(F)c3)cc2[nH]c1=O (centres unmarked) [Compound 282] |
| 31.6 nM | 158 nM | – | – | CCc1cc2ccc(C(C)(C#N)Cc3cc(C)cc(Br)c3)cc2[nH]c1=O (centres unmarked) [Compound 284] |
| 39.8 nM | 1260 nM | – | – | CCc1cc2ccc(C(C#N)(CC)Cc3cccc(OC)c3)cc2[nH]c1=O (centres unmarked) [Compound 287] |
| 63.1 nM | 631 nM | – | – | CCOc1cc(C#N)nc(CC(C)(C#N)c2ccc3cc(CC)c(=O)[nH]c3c2)n1 (centres unmarked) [Compound 315] |
| 39.8 nM | 3160 nM | – | – | CCc1cc2ccc(C(C)(C#N)Cc3ccnc(C#N)c3)cc2[nH]c1=O (centres unmarked) [Compound 324] |
| 63.1 nM | 794 nM | – | – | CCc1cc2ccc(C(C)(C#N)Cc3cc(C)nc(Cl)c3)cc2[nH]c1=O (centres unmarked) [Compound 326] |
| 63.1 nM | 501 nM | – | – | CCc1cc2ccc(C(C)(C#N)Cc3cc(C)nc(C#N)c3)cc2[nH]c1=O (centres unmarked) [Compound 328] |
| 39.8 nM | 5010 nM | – | – | CCc1cc2ccc(C(C)(C#N)Cc3ccnc(F)c3)cc2[nH]c1=O (centres unmarked) [Compound 330] |
| 31.6 nM | 631 nM | – | – | CCc1cc2ccc(C(C)(C#N)Cc3cccc(F)n3)cc2[nH]c1=O (centres unmarked) [Compound 331] |
| 31.6 nM | 10000 nM | – | – | CCc1cc2ccc([C@](C)(C#N)Cc3cc(F)cc(F)c3)cc2[nH]c1=O [Compound 333] |
| 100 nM | 3160 nM | – | – | CCc1cc2ccc(C(C)(C#N)Cc3ccc(C(F)(F)F)nc3C)cc2[nH]c1=O (centres unmarked) [Compound 340] |
| 63.1 nM | 2510 nM | – | – | CCc1cc2ccc(C(C)(C#N)Cc3ccnc(Cl)c3)cc2[nH]c1=O (centres unmarked) [Compound 341] |
| 79.4 nM | 3160 nM | – | – | CCc1cc2ccc(C(C)(C#N)CCOc3ccnc(SC)n3)cc2[nH]c1=O (centres unmarked) [Compound 348] |
| 100 nM | 316 nM | – | – | CCc1cc2ccc(C(C)(C#N)Cc3nc(C)cc(OC)n3)cc2[nH]c1=O (centres unmarked) [Compound 371] |
| 63.1 nM | 631 nM | – | – | CCc1cc2ccc(C(C#N)(CC)Cc3cccc(CN)c3)cc2[nH]c1=O (centres unmarked) [Compound 390] |
| 126 nM | 7940 nM | – | – | CCc1cc2ccc([C@](C)(C#N)C[C@H]3Cc4ccccc4O3)cc2[nH]c1=O [Compound 397] |
| 100 nM | 5010 nM | – | – | CCc1cc2ccc(C(C)(C#N)CC3Oc4ccccc4O3)cc2[nH]c1=O (centres unmarked) [Compound 398] |
| 50.1 nM | – | – | 6.7 | CCc1cc2ccc(C(C)(C#N)Cc3cc(F)cc(F)c3)cc2[nH]c1=O (centres unmarked) [Compound 402] |
